Measurements as given in PMC6001238, “Iterative Chemical Engineering of Vancomycin Leads to Novel Vancomycin Analogs With a High in Vitro Therapeutic Index” (Frontiers in Microbiology, 2018).
In brackets after ≈: the same amount, converted by molar mass. Like-named read-outs stand apart in the source and are kept apart here.

Key:
MRSA KS1 = assay: MIC, broth microdilution, MRSA KS1; assay type: cell-based, Staphylococcus aureus; conditions: for MIC-fold improvement vs. vancomycin: MRSA KS1, ratio of MIC of vancomycin and MIC of analogue; for MIC: Staphylococcus aureus MRSA KS1, read-out: MIC
Outline: (§1)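 MIC values come from broth microdilution run to CLSI susceptibility-testing standards. Ultrapure water and uninoculated broth served as controls. In one series, vancomycin at a final 10 μM was co-dosed with the analogue or comparator antibiotic.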

[1] = tested on: S. aureus VSSA (ATCC 6538); assay: MIC, broth microdilution, vancomycin-sensitive S. aureus (VSSA/MSSA, ATCC 6538); assay type: cell-based, Staphylococcus aureus; conditions: for MIC: Staphylococcus aureus VSSA, read-out: MIC; for MIC-fold improvement vs. vancomycin: VSSA, ratio of MIC of vancomycin and MIC of analogue
Outline: as §1

MRSA KS89 = assay: MIC, broth microdilution, MRSA KS89; assay type: cell-based, Staphylococcus aureus; conditions: for MIC-fold improvement vs. vancomycin: ratio of MIC of vancomycin and MIC of analogue; for MIC: read-out: MIC
Outline: as §1

E. faecalis VSE 1 = assay: MIC, broth microdilution, vancomycin-sensitive E. faecalis (VSE 1); assay type: cell-based, Enterococcus faecalis; conditions: for MIC: Enterococcus faecalis VSE 1 (vancomycin-sensitive), read-out: MIC; for MIC-fold improvement vs. vancomycin: VSE 1, ratio of MIC of vancomycin and MIC of analogue
Outline: as §1

[2] = tested on: L1210, CEM and HeLa cell lines; assay: Cytostatic activity, average or summary over L1210, CEM and HeLa; assay type: cell-based; conditions: average of L1210, CEM and HeLa; read-out: Toxicity (IC50) Average
Outline: (§2)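 Test compounds, serially diluted, received an equal volume of cell suspension at 300,000–500,000 cells/mL. After 37°C incubation (2 days for L1210, 3 for CEM, 4 for HeLa), cells were enumerated by Coulter counting and 50%-inhibitory concentrations calculated per cell type.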

E. faecalis VRE 53 = assay: MIC, broth microdilution, vancomycin-resistant E. faecalis VRE 53 (VanA); assay type: cell-based, Enterococcus faecalis; conditions: for MIC: Enterococcus faecalis VRE 53 (vancomycin-resistant), read-out: MIC; for MIC-fold improvement vs. vancomycin: VRE 53, ratio of MIC of vancomycin and MIC of analogue
Outline: as §1

[3] = tested on: human cervix carcinoma (HeLa) cells; assay: Cytostatic activity, HeLa cell proliferation; assay type: cell-based; conditions: mean ± SD of three experiments; highest concentration tested 250 µM; 4 days; read-out: Toxicity (IC50) HeLa
Outline: as §2

E. faecalis VRE 37 = assay: MIC, broth microdilution, vancomycin-resistant E. faecalis VRE 37 (VanA); assay type: cell-based, Enterococcus faecalis; conditions: for MIC: Enterococcus faecalis VRE 37 (vancomycin-resistant), read-out: MIC; for MIC-fold improvement vs. vancomycin: VRE 37, ratio of MIC of vancomycin and MIC of analogue
Outline: as §1

E. faecalis VRE 29 = assay: MIC, broth microdilution, vancomycin-resistant E. faecalis VRE 29 (VanA); assay type: cell-based, Enterococcus faecalis; conditions: for MIC: Enterococcus faecalis VRE 29 (vancomycin-resistant), read-out: MIC; for MIC-fold improvement vs. vancomycin: VRE 29, ratio of MIC of vancomycin and MIC of analogue
Outline: as §1

[4] = tested on: Murine leukemia (L1210) cells; assay: Cytostatic activity, L1210 cell proliferation; assay type: cell-based; conditions: mean ± SD of three experiments; highest concentration tested 250 µM; 2 days; read-out: Toxicity (IC50) L1210
Outline: as §2

MRSA KS6 = assay: MIC, broth microdilution, MRSA KS6; assay type: cell-based, Staphylococcus aureus; conditions: for MIC-fold improvement vs. vancomycin: MRSA KS6, ratio of MIC of vancomycin and MIC of analogue; for MIC: Staphylococcus aureus MRSA KS6, read-out: MIC
Outline: as §1

S. aureus VRSA = assay: MIC, broth microdilution, vancomycin-resistant S. aureus (VRSA); assay type: cell-based, Staphylococcus aureus; conditions: for MIC: Staphylococcus aureus VRSA, read-out: MIC; for MIC-fold improvement vs. vancomycin: VRSA, ratio of MIC of vancomycin and MIC of analogue
Outline: as §1

MRSA KS2 = assay: MIC, broth microdilution, MRSA KS2; assay type: cell-based, Staphylococcus aureus; conditions: for MIC-fold improvement vs. vancomycin: MRSA KS2, ratio of MIC of vancomycin and MIC of analogue; for MIC: Staphylococcus aureus MRSA KS2, read-out: MIC
Outline: as §1

E. faecalis VRE 6 = assay: MIC, broth microdilution, vancomycin-resistant E. faecalis VRE 6 (VanA); assay type: cell-based, Enterococcus faecalis; conditions: for MIC: Enterococcus faecalis VRE 6 (vancomycin-resistant), read-out: MIC; for MIC-fold improvement vs. vancomycin: VRE 6, ratio of MIC of vancomycin and MIC of analogue
Outline: as §1

[5] = tested on: human T-lymphocyte (CEM) cells; assay: Cytostatic activity, CEM cell proliferation; assay type: cell-based; conditions: mean ± SD of three experiments; highest concentration tested 250 µM; 3 days; read-out: Toxicity (IC50) CEM
Outline: as §2

S. aureus VISA/HIP5827 = assay: MIC, broth microdilution, vancomycin-intermediate S. aureus VISA HIP5827; assay type: cell-based, Staphylococcus aureus; conditions: for MIC: Staphylococcus aureus VISA/HIP5827, read-out: MIC; for MIC-fold improvement vs. vancomycin: VISA/HIP5827, ratio of MIC of vancomycin and MIC of analogue
Outline: as §1

Row | Structure (SMILES) | MIC-fold improvement vs. vancomycin (MRSA KS1) | MIC (MRSA KS1) | MIC [1] | MIC-fold improvement vs. vancomycin [1] | MIC (E. faecalis VSE 1) | MIC-fold improvement vs. vancomycin (E. faecalis VSE 1) | IC50 [2] | MIC (E. faecalis VRE 53) | MIC-fold improvement vs. vancomycin (E. faecalis VRE 53) | IC50 [3] | MIC (E. faecalis VRE 37) | MIC (E. faecalis VRE 29) | MIC-fold improvement vs. vancomycin (E. faecalis VRE 29) | IC50 [4] | MIC-fold improvement vs. vancomycin (MRSA KS6) | MIC (MRSA KS6) | MIC (S. aureus VRSA) | MIC-fold improvement vs. vancomycin (S. aureus VRSA) | MIC-fold improvement vs. vancomycin (MRSA KS2) | MIC (MRSA KS2) | further results
1 | CCCCCn1cc(-c2ccc(NC(=O)CNC(=O)C3NC(=O)C4NC(=O)C(NC(=O)C5NC(=O)C(CC(N)=O)NC(=O)C(NC(=O)C(CC(C)C)NC)C(O)c6ccc(c(Cl)c6)Oc6cc5cc(c6OC5OC(CO)C(O)C(O)C5OC5CC(C)(N)C(O)C(C)O5)Oc5ccc(cc5Cl)C4O)c4ccc(O)c(c4)-c4c(O)cc(O)cc43)cc2)nn1 (centres unmarked) [Vanc-91] | 8 | 0.10 µM (≈ 0.172 µg/mL) | 0.10 µM (≈ 0.172 µg/mL) | 8 | ≤0.05 µM | ≥32 | 136 µM | 25 µM (≈ 43 µg/mL) | 16 | 147 ± 11 µM | 6.25 µM (≈ 10.7 µg/mL) | 6.25 µM (≈ 10.7 µg/mL) | 64 | 154 ± 93 µM | 8 | 0.10 µM (≈ 0.172 µg/mL) | 0.39 µM (≈ 0.67 µg/mL) | 256 | 8 | 0.10 µM (≈ 0.172 µg/mL) | MIC-fold improvement vs. vancomycin (MRSA KS89; MRSA KS8 (head; KS89 in title)): 4; MIC (MRSA KS89; Staphylococcus aureus MRSA KS8 (head; KS89 in title)): 0.20 µM (≈ 0.344 µg/mL); MIC-fold improvement vs. vancomycin (E. faecalis VRE 37): 64; MIC (E. faecalis VRE 6): 1.56 µM (≈ 2.68 µg/mL); MIC-fold improvement vs. vancomycin (E. faecalis VRE 6): 128; IC50 [5]: 107 ± 25 µM; MIC (S. aureus VISA/HIP5827): 0.39 µM (≈ 0.67 µg/mL); MIC-fold improvement vs. vancomycin (S. aureus VISA/HIP5827): 16
2 | CCCCC#Cc1ccc(NC(=O)CNC(=O)[C@H]2NC(=O)[C@H]3NC(=O)[C@H](NC(=O)[C@@H]4NC(=O)[C@H](CC(N)=O)NC(=O)[C@H](NC(=O)[C@@H](CC(C)C)NC)[C@H](O)c5ccc(c(Cl)c5)Oc5cc4cc(c5O[C@@H]4O[C@H](CO)[C@@H](O)[C@H](O)[C@H]4O[C@H]4C[C@](C)(N)[C@H](O)[C@H](C)O4)Oc4ccc(cc4Cl)[C@H]3O)c3ccc(O)c(c3)-c3c(O)cc(O)cc32)cc1 [Vanc-37] | 4 | 0.20 µM (≈ 0.332 µg/mL) | 0.10 µM (≈ 0.166 µg/mL) | 8 | 0.20 µM (≈ 0.332 µg/mL) | 8 | 52 µM | 3.13 µM (≈ 5.2 µg/mL) | 128 | 118 ± 10 µM | 1.56 µM (≈ 2.59 µg/mL) | 6.25 µM (≈ 10.4 µg/mL) | 64 | 14 ± 7 µM | 8 | 0.10 µM (≈ 0.166 µg/mL) | 1.56 µM (≈ 2.59 µg/mL) | 64 | 4 | 0.20 µM (≈ 0.332 µg/mL) | MIC-fold improvement vs. vancomycin (MRSA KS89; MRSA KS8): 4; MIC (MRSA KS89; Staphylococcus aureus MRSA KS8): 0.20 µM (≈ 0.332 µg/mL); MIC-fold improvement vs. vancomycin (E. faecalis VRE 37): 256; MIC (E. faecalis VRE 6): 1.56 µM (≈ 2.59 µg/mL); MIC-fold improvement vs. vancomycin (E. faecalis VRE 6): 128; IC50 [5]: 24 ± 4 µM; MIC (S. aureus VISA/HIP5827): 0.10 µM (≈ 0.166 µg/mL); MIC-fold improvement vs. vancomycin (S. aureus VISA/HIP5827): 64
3 | CN[C@H](CC(C)C)C(=O)N[C@H]1C(=O)N[C@@H](CC(N)=O)C(=O)N[C@H]2C(=O)N[C@H]3C(=O)N[C@H](C(=O)N[C@H](C(=O)NCC(=O)Nc4cccc5ccccc45)c4cc(O)cc(O)c4-c4cc3ccc4O)[C@H](O)c3ccc(c(Cl)c3)Oc3cc2cc(c3O[C@@H]2O[C@H](CO)[C@@H](O)[C@H](O)[C@H]2O[C@H]2C[C@](C)(N)[C@H](O)[C@H](C)O2)Oc2ccc(cc2Cl)[C@H]1O [Vanc-41] | 2 | 0.39 µM (≈ 0.636 µg/mL) | 0.78 µM (≈ 1.27 µg/mL) | 1 | 0.39 µM (≈ 0.636 µg/mL) | 4 | > 250 µM | 25 µM (≈ 40.8 µg/mL) | 16 | > 250 µM | 12.5 µM (≈ 20.4 µg/mL) | 12.5 µM (≈ 20.4 µg/mL) | 32 | > 250 µM | 2 | 0.39 µM (≈ 0.636 µg/mL) | 6.25 µM (≈ 10.2 µg/mL) | 16 | 2 | 0.39 µM (≈ 0.636 µg/mL) | MIC-fold improvement vs. vancomycin (MRSA KS89; MRSA KS8): 2; MIC (MRSA KS89; Staphylococcus aureus MRSA KS8): 0.39 µM (≈ 0.636 µg/mL); MIC (E. faecalis VRE 6): 6.25 µM (≈ 10.2 µg/mL); MIC-fold improvement vs. vancomycin (E. faecalis VRE 6): 32; IC50 [5]: > 250 µM; MIC (S. aureus VISA/HIP5827): 1.56 µM (≈ 2.55 µg/mL); MIC-fold improvement vs. vancomycin (S. aureus VISA/HIP5827): 4
4 | CN[C@H](CC(C)C)C(=O)N[C@H]1C(=O)N[C@@H](CC(N)=O)C(=O)N[C@H]2C(=O)N[C@H]3C(=O)N[C@H](C(=O)N[C@H](C(=O)NCC(=O)Nc4ccc(N5CCOCC5)cc4)c4cc(O)cc(O)c4-c4cc3ccc4O)[C@H](O)c3ccc(c(Cl)c3)Oc3cc2cc(c3O[C@@H]2O[C@H](CO)[C@@H](O)[C@H](O)[C@H]2O[C@H]2C[C@](C)(N)[C@H](O)[C@H](C)O2)Oc2ccc(cc2Cl)[C@H]1O [Vanc-8] | 1 | 0.78 µM (≈ 1.3 µg/mL) | 1.56 µM (≈ 2.6 µg/mL) | 0.5 | 0.78 µM (≈ 1.3 µg/mL) | 2 | 202 µM | 12.5 µM (≈ 20.8 µg/mL) | 32 | 107 ± 25 µM | 25 µM (≈ 41.7 µg/mL) | 25 µM (≈ 41.7 µg/mL) | 16 | > 250 µM | 0.5 | 1.56 µM (≈ 2.6 µg/mL) | 25 µM (≈ 41.7 µg/mL) | 4 | 1 | 0.78 µM (≈ 1.3 µg/mL) | MIC-fold improvement vs. vancomycin (MRSA KS89; MRSA KS8): 1; MIC (MRSA KS89; Staphylococcus aureus MRSA KS8): 0.78 µM (≈ 1.3 µg/mL); MIC (E. faecalis VRE 6): 12.5 µM (≈ 20.8 µg/mL); MIC-fold improvement vs. vancomycin (E. faecalis VRE 6): 16; IC50 [5]: ≥ 250 µM; MIC (S. aureus VISA/HIP5827): 1.56 µM (≈ 2.6 µg/mL); MIC-fold improvement vs. vancomycin (S. aureus VISA/HIP5827): 4
